Reference: paper PMC10180276, “Hot-Melt Extrusion as an Effective Technique for Obtaining an Amorphous System of Curcumin and Piperine with Improved Properties Essential for Their Better Biological Activities” (Molecules, 2023)
Converted amounts (≈) assume the structure as drawn.

What was measured:
[1] = in vitro; conditions: PAMPA, pH 6.8
Method: Concentrations of curcumin and piperine during solubility, dissolution rate, and permeability studies were measured by high-performance liquid chromatography with the DAD detector (HPLC-DAD). In this study, a Shimadzu Nexera system (Shimadzu Corp., Kyoto, Japan) was used, equipped with an SCL-40 system controller, a DGU-403 degassing unit, a LC-40B XR solvent delivery module, a SIL-40C autosampler, a CTO-40C column oven, and a SPD-M40 photodiode array detector. For the stationary phase, a Dr. Maisch ReproSil-Pur Basic-C18 100 Å column with 5 µm particle size and 250 × 4.60 mm (Dr. Maisch, Ammerbuch-Entringen, Germany) was used. The mobile phase was acetonitrile:0.1% acetic acid (85:15 v/v). The mobile phase was vacuum-filtered through a 0.45 µm nylon filter (Phenomenex, Torrance, CA, USA). The experimental conditions were as follows: 0.5 mL/min flow rate, wavelengths of 420 nm for curcumin and 340 nm for piperine, and a column temperature of 30 °C. The injection volume differed depending on the assay. […] The method’s duration was 12 min. […]
In vitro gastrointestinal (GIT) and blood–brain barrier (BBB) permeability were studied using the PAMPA (Parallel Artificial Membrane Permeability Assay) models. […] The Papp factor was calculated according to the previously reported method. […] The results were expressed as a concentration in the acceptor solution.

[2] = Apparent solubility study in phosphate buffer pH 6.8; type: physicochemical
Method: (§1) The injection volume differed depending on the assay. […] The method’s duration was 12 min.
(§2) Phosphate buffer at pH 6.8 was prepared according to the following description: in a 1000 mL volumetric flask, we placed 250 mL of 0.2 N potassium dihydrogen phosphate solution, then added 112 mL of 0.2 N sodium hydroxide solution, and filled the mixture up to 1000 mL with distilled water. High-quality pure water was prepared using a Direct-Q 3 UV purification system (Millipore, Molsheim, France, model Exil SA 67120).
An excess amount of raw compounds and systems (corresponding to 1.5 mg of each substance) was placed in a 10 mL glass tube; then, 2.0 mL of phosphate buffer (pH 6.8) was added and left at room temperature for 3 h.

[3] = Dissolution study, paddle apparatus, phosphate buffer pH 6.8; type: physicochemical; conditions: phosphate buffer pH 6.8, 37 °C, 50 rpm; after one hour (plateau)
Method: as §1, §2
The dissolution study was performed on the paddle apparatus (Agilent 708-DS dissolution apparatus, Santa Clara, CA, USA). The amount of the compound and systems corresponding to 7.0 mg of each plant-origin active ingredient was added to the gelatin capsule, placed in a spring used as a sinker, and then added to the dissolution medium. The vessels were filled with 500 mL of phosphate buffer, pH 6.8; the temperature was maintained at 37 °C, and the paddles were set at a stirring speed of 50 rotations per minute. The 2.0 mL samples were withdrawn at predetermined time points (5 min, 15 min, 30 min, 1 h, 2 h, 3 h, 4 h, 5 h, and 6 h) with the replacement of equal volumes of temperature-equilibrated media.

[4] = PAMPA BBB permeability model; type: in vitro ADME; conditions: pH 7.4
Method: as §1
The sandwich consists of two 96-well microfilter plates.

COc1cc(/C=C/C(=O)CC(=O)/C=C/c2ccc(O)c(OC)c2)ccc1O [curcumin]
Papp at 3 h [1]: 16.3 nm/s
solubility at 3 h [2]: 0.1 µg/mL (≈ 0.271 µM)
curcumin dissolved, % of the dose [3]: 2.54 ± 0.15%
Papp at 3 h [4]: 26.3 nm/s

O=C(/C=C/C=C/c1ccc2c(c1)OCO2)N1CCCCC1 [piperine]
Papp at 3 h [1]: 81.8 nm/s
solubility at 3 h [2]: 6 ± 0.1 µg/mL (≈ 21 µM)
piperine dissolved, % of the dose [3]: 22.63 ± 0.67%
Papp at 3 h [4]: 577 nm/s
